27 compounds from US20260250290A1 (BRISTOL-MYERS SQUIBB COMPANY, priority 2023, published 2026) can be followed below.

This assay addresses T1, full length SGK1 (Homo sapiens, UniProt O00141).
T1 construct: 125 μM full length SGK1 (Life Technologies Part #PR7358A); purchased Life Technologies PR7358A
T1 sequence (O00141 1-431): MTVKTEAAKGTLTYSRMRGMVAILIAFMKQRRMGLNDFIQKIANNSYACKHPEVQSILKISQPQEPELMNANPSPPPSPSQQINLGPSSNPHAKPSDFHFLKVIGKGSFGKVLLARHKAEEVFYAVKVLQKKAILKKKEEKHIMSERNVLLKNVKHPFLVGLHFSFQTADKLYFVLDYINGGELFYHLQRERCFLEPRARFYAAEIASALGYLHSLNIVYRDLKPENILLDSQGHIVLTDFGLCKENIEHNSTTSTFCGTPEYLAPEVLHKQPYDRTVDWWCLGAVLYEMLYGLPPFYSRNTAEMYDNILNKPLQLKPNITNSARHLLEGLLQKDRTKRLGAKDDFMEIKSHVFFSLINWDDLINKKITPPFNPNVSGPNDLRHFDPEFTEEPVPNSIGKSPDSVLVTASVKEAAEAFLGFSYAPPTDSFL
Briefly: SGK1 inhibition Assay A (Caliper LabChip electrophoretic separation of fluorescent peptide substrate and phosphorylated product). Type of assay: biochemical. To be noted: Assay A; 20 μM ATP, 40 min incubation; read-out: SGK1 IC50.

Structures can show the parent of a compound that is named as a salt.

As usually defined, the IC50 is the concentration that inhibits the measured activity by half. On to `CS(=O)(=O)c1ccc(-c2cc(N3CCC[C@@H](NC(=O)c4cccc(-c5cnco5)c4)C3)c3c(N)ncnn23)cc1` [Example 51, (R)-N-(1-(4-amino-7-(4-(methylsulfonyl)phenyl)pyrrolo[2,1-f][1,2,4]triazin-5-yl)piperidin-3-yl)-3-(oxazol-5-yl)benzamide], for which the IC50 stood at 13 nM. The result for `Cc1ccccc1C(=O)N[C@@H]1CCCN(c2cc(-c3ccc(S(C)(=O)=O)cc3)n3ncnc(N)c23)C1` [Example 52, (R)-N-(1-(4-amino-7-(4-(methylsulfonyl)phenyl)pyrrolo[2,1-f][1,2,4]triazin-5-yl)piperidin-3-yl)-2-methylbenzamide] reads 210 nM; that for `CS(=O)(=O)c1ccc(-c2cc(N3CCC[C@@H](NC(=O)c4cccc(F)c4)C3)c3c(N)ncnn23)cc1` [Example 53, (R)-N-(1-(4-amino-7-(4-(methylsulfonyl)phenyl)pyrrolo[2,1-f][1,2,4]triazin-5-yl)piperidin-3-yl)-3-fluorobenzamide], 15 nM; that for `CS(=O)(=O)c1ccc(-c2cc(N3CCC[C@@H](NC(=O)c4ccn5ccnc5c4)C3)c3c(N)ncnn23)cc1` [Example 54], 596 nM. Take `COc1ccc(OC)c(C(=O)N[C@@H]2CCCN(c3cc(-c4ccc(S(C)(=O)=O)cc4)n4ncnc(N)c34)C2)c1` [Example 56, (R)-N-(1-(4-amino-7-(4-(methylsulfonyl)phenyl)pyrrolo[2,1-f][1,2,4]triazin-5-yl)piperidin-3-yl)-2,5-dimethoxybenzamide, TFA]: the IC50 is 486 nM.

As to `COc1ccc(C)cc1C(=O)N[C@@H]1CCCN(c2cc(-c3ccc(S(C)(=O)=O)cc3)n3ncnc(N)c23)C1` [Example 57, (R)-N-(1-(4-amino-7-(4-(methylsulfonyl)phenyl)pyrrolo[2,1-f][1,2,4]triazin-5-yl)piperidin-3-yl)-2-methoxy-5-methylbenzamide, TFA], the IC50 came to 112 nM.

In the case of `CS(=O)(=O)c1ccc(-c2cc(N3CCC[C@@H](NC(=O)c4ccccc4OC(F)F)C3)c3c(N)ncnn23)cc1` [Example 58, (R)-N-(1-(4-amino-7-(4-(methylsulfonyl)phenyl)pyrrolo[2,1-f][1,2,4]triazin-5-yl)piperidin-3-yl)-2-(difluoromethoxy) benzamide, TFA], the IC50 is 854 nM. In the case of `CS(=O)(=O)c1ccc(-c2cc(N3CCC[C@@H](NC(=O)c4ccccc4OCCO)C3)c3c(N)ncnn23)cc1` [Example 59, (R)-N-(1-(4-amino-7-(4-(methylsulfonyl)phenyl)pyrrolo[2,1-f][1,2,4]triazin-5-yl)piperidin-3-yl)-2-(2-hydroxyethoxy) benzamide], the IC50 is 10 nM. The result for `COc1ncccc1C(=O)N[C@@H]1CCCN(c2cc(-c3ccc(S(C)(=O)=O)cc3)n3ncnc(N)c23)C1` [Example 60, (R)-N-(1-(4-amino-7-(4-(methylsulfonyl)phenyl)pyrrolo[2,1-f][1,2,4]triazin-5-yl)piperidin-3-yl)-2-methoxynicotinamide] reads 130 nM. Turning to `CS(=O)(=O)c1ccc(-c2cc(N3CCC[C@@H](NC(=O)c4cnco4)C3)c3c(N)ncnn23)cc1` [Example 61, (R)-N-(1-(4-amino-7-(4-(methylsulfonyl)phenyl)pyrrolo[2,1-f][1,2,4]triazin-5-yl)piperidin-3-yl)oxazole-5-carboxamide], the half-inhibitory concentration (IC50) is 33 nM.

On to `CS(=O)(=O)c1ccc(-c2cc(N3CCC[C@@H](NC(=O)c4ccsn4)C3)c3c(N)ncnn23)cc1` [Example 62, (R)-N-(1-(4-amino-7-(4-(methylsulfonyl)phenyl)pyrrolo[2,1-f][1,2,4]triazin-5-yl)piperidin-3-yl)isothiazole-3-carboxamide], for which the IC50 was 111 nM. To `Cc1cc(C(=O)N[C@@H]2CCCN(c3cc(-c4ccc(S(C)(=O)=O)cc4)n4ncnc(N)c34)C2)on1` [Example 63, (R)-N-(1-(4-amino-7-(4-(methylsulfonyl)phenyl)pyrrolo[2,1-f][1,2,4]triazin-5-yl)piperidin-3-yl)-3-methylisoxazole-5-carboxamide, TFA] belongs 105 nM; to `CS(=O)(=O)c1ccc(-c2cc(N3CCC[C@@H](NC(=O)c4ccno4)C3)c3c(N)ncnn23)cc1` [Example 64, (R)-N-(1-(4-amino-7-(4-(methylsulfonyl)phenyl)pyrrolo[2,1-f][1,2,4]triazin-5-yl)piperidin-3-yl)isoxazole-5-carboxamide], 285 nM; to `CC(C)c1cc(C(=O)N[C@@H]2CCCN(c3cc(-c4ccc(S(C)(=O)=O)cc4)n4ncnc(N)c34)C2)on1` [Example 65, (R)-N-(1-(4-amino-7-(4-(methylsulfonyl)phenyl)pyrrolo [2,1-f][1,2,4]triazin-5-yl)piperidin-3-yl)-3-isopropylisoxazole-5-carboxamide], 19 nM.

In the case of `CS(=O)(=O)c1ccc(-c2cc(N3CCC[C@@H](NC(=O)c4cncs4)C3)c3c(N)ncnn23)cc1` [Example 66, (R)-N-(1-(4-amino-7-(4-(methylsulfonyl)phenyl)pyrrolo[2,1-f][1,2,4]triazin-5-yl)piperidin-3-yl)thiazole-5-carboxamide], the IC50 was 39 nM. As for `COc1cc(C(=O)N[C@@H]2CCCN(c3cc(-c4ccc(S(C)(=O)=O)cc4)n4ncnc(N)c34)C2)c(OC)nn1` [Example 67, (R)-N-(1-(4-amino-7-(4-(methylsulfonyl)phenyl)pyrrolo[2,1-f][1,2,4]triazin-5-yl)piperidin-3-yl)-3,6-dimethoxypyridazine-4-carboxamide], the IC50 stood at 261 nM. The result for `COc1cnccc1C(=O)N[C@@H]1CCCN(c2cc(-c3ccc(S(C)(=O)=O)cc3)n3ncnc(N)c23)C1` [Example 68, (R)-N-(1-(4-amino-7-(4-(methylsulfonyl)phenyl)pyrrolo[2,1-f][1,2,4]triazin-5-yl)piperidin-3-yl)-3-methoxyisonicotinamide] reads 287 nM; that for `CS(=O)(=O)c1ccc(-c2cc(N3CCC[C@@H](NC(=O)c4ccnc(N5CCOCC5)c4)C3)c3c(N)ncnn23)cc1` [Example 69, (R)-N-(1-(4-amino-7-(4-(methylsulfonyl)phenyl)pyrrolo[2,1-f][1,2,4]triazin-5-yl)piperidin-3-yl)-2-morpholinoisonicotinamide], 37 nM; that for `CS(=O)(=O)c1ccc(-c2cc(N3CCC[C@@H](NC(=O)c4cnns4)C3)c3c(N)ncnn23)cc1` [Example 70, (R)-N-(1-(4-amino-7-(4-(methylsulfonyl)phenyl)pyrrolo[2,1-f][1,2,4]triazin-5-yl)piperidin-3-yl)-1,2,3-thiadiazole-5-carboxamide], 21 nM.

Regarding `COc1cc(C(=O)N[C@@H]2CCCN(c3cc(-c4ccc(S(C)(=O)=O)cc4)n4ncnc(N)c34)C2)sn1` [Example 71, (R)-N-(1-(4-amino-7-(4-(methylsulfonyl)phenyl)pyrrolo[2,1-f][1,2,4]triazin-5-yl)piperidin-3-yl)-3-methoxyisothiazole-5-carboxamide], the IC50 was determined as 6 nM. The result for `CS(=O)(=O)c1ccc(-c2cc(N3CCC[C@@H](NC(=O)c4cc(Cl)ns4)C3)c3c(N)ncnn23)cc1` [Example 72, (R)-N-(1-(4-amino-7-(4-(methylsulfonyl)phenyl)pyrrolo[2,1-f][1,2,4]triazin-5-yl)piperidin-3-yl)-3-chloroisothiazole-5-carboxamide, TFA] reads 13 nM; that for `Cc1cc(C(=O)N[C@@H]2CCCN(c3cc(-c4ccc(S(C)(=O)=O)cc4)n4ncnc(N)c34)C2)sn1` [Example 73, (R)-N-(1-(4-amino-7-(4-(methylsulfonyl)phenyl)pyrrolo[2,1-f][1,2,4]triazin-5-yl)piperidin-3-yl)-3-methylisothiazole-5-carboxamide], 8 nM; that for `CS(=O)(=O)c1ccc(-c2cc(N3CCC[C@@H](NC(=O)c4cc(Cl)no4)C3)c3c(N)ncnn23)cc1` [Example 74, (R)-N-(1-(4-amino-7-(4-(methylsulfonyl)phenyl)pyrrolo[2,1-f][1,2,4]triazin-5-yl)piperidin-3-yl)-3-chloroisoxazole-5-carboxamide, TFA], 25 nM. Turning to `CS(=O)(=O)c1ccc(-c2cc(N3CCC[C@@H](NC(=O)c4cnn(C(F)F)c4)C3)c3c(N)ncnn23)cc1` [Example 75, (R)-N-(1-(4-amino-7-(4-(methylsulfonyl)phenyl)pyrrolo[2,1-f][1,2,4]triazin-5-yl)piperidin-3-yl)-1-(difluoromethyl)-1H-pyrazole-4-carboxamide, TFA], the IC50 came to 44 nM. The result for `CS(=O)(=O)c1ccc(-c2cc(N3CCC[C@@H](NC(=O)c4cnn(CC(F)(F)F)c4)C3)c3c(N)ncnn23)cc1` [Example 76, (R)-N-(1-(4-amino-7-(4-(methylsulfonyl)phenyl)pyrrolo[2,1-f][1,2,4]triazin-5-yl)piperidin-3-yl)-1-(2,2,2-trifluoroethyl)-1H-pyrazole-4-carboxamide] reads 53 nM. The result for `CC(C)n1cc(C(=O)N[C@@H]2CCCN(c3cc(-c4ccc(S(C)(=O)=O)cc4)n4ncnc(N)c34)C2)cn1` [Example 77, (R)-N-(1-(4-amino-7-(4-(methylsulfonyl)phenyl)pyrrolo[2,1-f][1,2,4]triazin-5-yl)piperidin-3-yl)-1-isopropyl-1H-pyrazole-4-carboxamide, TFA] reads 31 nM; that for `CS(=O)(=O)c1ccc(-c2cc(N3CCC[C@@H](NC(=O)c4cnn(C5CCOCC5)c4)C3)c3c(N)ncnn23)cc1` [Example 78, (R)-N-(1-(4-amino-7-(4-(methylsulfonyl)phenyl)pyrrolo[2,1-f][1,2,4]triazin-5-yl)piperidin-3-yl)-1-(tetrahydro-2H-pyran-4-yl)-1H-pyrazole-4-carboxamide], 67 nM.
